From ChEMBL document CHEMBL5518178 (Eur J Med Chem, 2024)
Calls of active or inactive are those of the source. The calls are words filed in the database; no cut-off is given here.

What was measured:
[1] = Toxicity in BALB/c-nude mouse xenografted with human MGC-803 cells assessed as abnormal behaviour at 30 mg/kg/day, ip administered for 18 days; assay type: organism-based; details: in vivo, 432 h, time 18 day
[2] = target: T1, Tubulin (Homo sapiens) (UniProt P68371+Q9H4B7+P0DPH7+P68366+Q13509+Q71U36+P04350+Q3ZCM7+P07437+P68363+Q9BQE3+Q6PEY2+Q13885+Q9BVA1+Q9BUF5); assay: Inhibition of tubulin polymerization in human MGC-803 cells assessed as reduction in filamentous microtubule structure formation at 10 to 40 nmol/L incubated for 48 hrs by DAPI staining based fluorescence microscopic analysis; assay type: cell-based; details: dose 10-40 nmol/L
[3] = test system: MGC-803; assay: Induction of apoptosis in human MGC-803 cells assessed as necrotic cells at 20 nmol/L incubated for 48 hrs by Annexin V-FITC/propidium iodide staining based flow cytometer analysis (reference value: 0.32 %); assay type: functional
[4] = Toxicity in BALB/c-nude mouse xenografted with human MGC-803 cells assessed as alteration in kidney tissue at 30 mg/kg/day, ip administered for 18 days by hematoxylin and eosin staining based analysis; assay type: organism-based; details: in vivo, 432 h, time 18 day
[5] = test system: MGC-803; assay: Induction of apoptosis in human MGC-803 cells assessed as caspase-7 cleavage at 10 to 40 nmol/L incubated for 48 hrs by Western blotting; assay type: functional, cell-based; details: dose 10-40 nmol/L
[6] = test system: MGC-803; assay: Anti-migratory activity against human MGC-803 cells assessed as inhibition of cell migration at 10 to 30 nmol/L measured for 48 hrs by crystal-violet staining based transwell migration assay; assay type: functional; details: dose 10-30 nmol/L
[7] = test system: MGC-803; assay: Antiproliferative activity against human MGC-803 cells assessed as increase in proportion of dead cells at 10 to 40 nmol/L incubated for 48 hrs by Calcein-AM/propidium iodide staining based fluorescence microscopic analysis; assay type: functional, cell-based; details: dose 10-40 nmol/L
[8] = test system: MGC-803; assay: Anti-migratory activity against human MGC-803 cells assessed as decrease in MMP-2 level at 10 to 40 nmol/L by Western blotting; assay type: functional, cell-based; details: dose 10-40 nmol/L
[9] = test system: MGC-803; assay: Induction of apoptosis in human MGC-803 cells assessed as late apoptotic cells at 10 nmol/L incubated for 48 hrs by Annexin V-FITC/propidium iodide staining based flow cytometer analysis (reference value: 2.22 %); assay type: functional
[10] = test system: MGC-803; assay: Induction of apoptosis in human MGC-803 cells assessed as early apoptotic cells at 20 nmol/L incubated for 48 hrs by Annexin V-FITC/propidium iodide staining based flow cytometer analysis (reference value: 4.38 %); assay type: functional
[11] = test system: MGC-803; assay: Antiproliferative activity against human MGC-803 cells assessed as decrease in cell density at 10 to 40 nmol/L incubated for 48 hrs by bright field microscopic analysis; assay type: functional, cell-based; details: dose 10-40 nmol/L
[12] = test system: MGC-803; assay: Antitumor activity against human MGC-803 cells xenografted in BALB/c-nude mouse assessed as tumor weight at 30 mg/kg/day, ip administered for 18 days (reference value: 0.656 g); assay type: functional; details: time 18 day
[13] = target: T1, Tubulin (Homo sapiens); assay: Inhibition of tubulin polymerization (unknown origin) at 3 uM by fluorescence plate reader analysis; assay type: protein-complex assay
[14] = test system: MGC-803; assay: Antiproliferative activity against human MGC-803 cells assessed as reduction in cell viability at 20 to 80 nmol/L by MTT assay; assay type: functional, cell-based; details: dose 20-80 nmol/L, time 12-48 hrs, TDE = time-dependent effect
[15] = test system: MGC-803; assay: Anti-migratory activity against human MGC-803 cells assessed as inhibition of cell migration at lower concentration measured for 48 hrs by wound healing assay; assay type: functional, cell-based
[16] = test system: MGC-803; assay: Induction of apoptosis in human MGC-803 cells assessed as early apoptotic cells at 10 nmol/L incubated for 48 hrs by Annexin V-FITC/propidium iodide staining based flow cytometer analysis (reference value: 4.38 %); assay type: functional
[17] = test system: MGC-803; assay: Antitumor activity against human MGC-803 cells xenografted in BALB/c-nude mouse assessed as tumor growth rate at 30 mg/kg/day, ip administered for 18 days relative to control; assay type: functional; details: time 18 day
[18] = test system: MGC-803; assay: Induction of apoptosis in human MGC-803 cells assessed as necrotic cells at 10 nmol/L incubated for 48 hrs by Annexin V-FITC/propidium iodide staining based flow cytometer analysis (reference value: 0.32 %); assay type: functional
[19] = test system: MGC-803; assay: Induction of apoptosis in human MGC-803 cells assessed as caspase-9 cleavage at 10 to 40 nmol/L incubated for 48 hrs by Western blotting; assay type: functional, cell-based; details: dose 10-40 nmol/L
[20] = Toxicity in BALB/c-nude mouse xenografted with human MGC-803 cells assessed as alteration in heart tissue at 30 mg/kg/day, ip administered for 18 days by hematoxylin and eosin staining based analysis; assay type: organism-based; details: in vivo, 432 h, time 18 day
[21] = test system: MGC-803; assay: Antitumor activity against human MGC-803 cells xenografted in BALB/c-nude mouse assessed as tumor growth inhibition at 30 mg/kg/day, ip administered for 18 days relative to control; assay type: functional; details: MGC-803, 432 h, time 18 day, read-out: TGI
[22] = test system: MGC-803; assay: Antiproliferative activity against human MGC-803 cells assessed as reduction in cell viability incubated for 12 to 48 hrs by MTT assay; assay type: functional, cell-based; details: dose 20-80 µM, time 12-48 hrs
[23] = Toxicity in BALB/c-nude mouse xenografted with human MGC-803 cells assessed as change in body weight at 30 mg/kg/day, ip administered for 18 days; assay type: organism-based; details: in vivo, 432 h, time 18 day
[24] = target: Tubulin beta (Homo sapiens) (UniProt P68371+Q9H4B7+Q13509+P04350+Q3ZCM7+P07437+Q13885+Q9BVA1+Q9BUF5+A6NNZ2); assay: Binding affinity to beta-tubulin (unknown origin) assessed as increase in alkaline protease level at 1 to 100 uM preincubated for 1 hr followed by alkaline protease addition and measured after 15 mins by Western blotting analysis; assay type: protein assay; details: dose 1-100 µM, time 75.0 min
[25] = test system: MGC-803; assay: Antiproliferative activity against human MGC-803 cells assessed as inhibition of cell growth incubated for 48 hrs by MTT assay; assay type: functional, cell-based; details: MGC-803, 48 h
[26] = test system: MGC-803; assay: Induction of apoptosis in human MGC-803 cells assessed as viable cells at 40 nmol/L incubated for 48 hrs by Annexin V-FITC/propidium iodide staining based flow cytometer analysis (reference value: 93.08 %); assay type: functional; details: read-out: Activity
[27] = test system: MGC-803; assay: Inhibition of colony formation in human MGC-803 cells incubated for 7 days by crystal violet staining based analysis; assay type: functional, cell-based; details: dose 24-40 nmol/L, time 7.0 day
[28] = test system: MGC-803; assay: Induction of apoptosis in human MGC-803 cells assessed as viable cells at 20 nmol/L incubated for 48 hrs by Annexin V-FITC/propidium iodide staining based flow cytometer analysis (reference value: 93.08 %); assay type: functional; details: read-out: Activity
[29] = test system: MGC-803; assay: Antiproliferative activity against human MGC-803 cells assessed as increase in nuclear brightness at 10 to 40 nmol/L incubated for 48 hrs by DAPI staining based fluorescence microscopic analysis; assay type: functional, cell-based; details: dose 10-40 nmol/L
[30] = test system: MGC-803; assay: Induction of apoptosis in human MGC-803 cells assessed as viable cells at 10 nmol/L incubated for 48 hrs by Annexin V-FITC/propidium iodide staining based flow cytometer analysis (reference value: 93.08 %); assay type: functional; details: read-out: Activity
[31] = test system: MGC-803; assay: Induction of apoptosis in human MGC-803 cells assessed as late apoptotic cells at 40 nmol/L incubated for 48 hrs by Annexin V-FITC/propidium iodide staining based flow cytometer analysis (reference value: 2.22 %); assay type: functional
[32] = Toxicity in BALB/c-nude mouse xenografted with human MGC-803 cells assessed as alteration in lung tissue at 30 mg/kg/day, ip administered for 18 days by hematoxylin and eosin staining based analysis; assay type: organism-based; details: in vivo, 432 h, time 18 day

SMILES: COc1ccc2c(c1)CCCN2c1cc(=O)oc2ccccc12
- Activity [1]: Non-Toxic
- inhibition [2]: Active
- Activity [3]: 0.12%
- Activity [4]: Non-Toxic
- Activity [5]: Active
- Activity [6]: Active
- Activity [7]: Active
- Activity [8]: Active
- Activity [9]: 2.8%
- Activity [10]: 9.14%
- Activity [11]: Active
- Activity [12]: 0.226 g
- inhibition [13]: Active
- Activity [14]: Tde
- Activity [15]: Active
- Activity [16]: 4.68%
- Activity [17]: 25%
- Activity [18]: 0.34%
- Activity [19]: Active
- Activity [20]: Non-Toxic
- inhibition in vivo at 30 mg/kg/day [21]: 65.5%
- Activity [22]: Dose-Dependent Effect
- Activity [23]: Non-Toxic
- Activity [24]: Active
- IC50 [25]: 34 nM
- viability at 0.04 µM [26]: 39.1%
- inhibition [27]: Dose-Dependent Effect
- viability at 0.02 µM [28]: 88%
- Activity [29]: Active
- viability at 0.01 µM [30]: 92.2%
- Activity [31]: 17.65%
- Activity [32]: Non-Toxic
